Assay results taken from US4701458A (priority 1985, dated 1987).
Several values for one entry are separate records, joined by “and”; a condition that tells them apart may be missing. Identical values can stand only once. Entries after “also recorded” stand apart in the source; their conditions may differ. Like-named read-outs stand apart in the source and are kept apart here.

Assays:
guanylate cyclase [1] = biological target: guanylate cyclase (Rattus norvegicus, UniProt P23897); experiment: biochemical; parameters: species or system Sprague-Dawley rat; details: for effect on ST-induced guanylate cyclase activity (in words): ST-activated
[2] = test system: Escherichia coli heat-stable enterotoxin (ST)-induced intestinal fluid secretion; type: in vivo, suckling mice
[3] = test system: 8-bromo cyclic GMP-induced intestinal fluid secretion; parameters: species or system suckling mice; details: mouse, in vivo
[4] = test system: basal intestinal fluid secretion; parameters: species or system suckling mice; details: mouse, in vivo, sc
guanylate cyclase [5] = details: cited from earlier work
[6] = test system: intestinal fluid secretion; details: in vivo; cited from earlier work
[7] = read-out: % Inhibition of ST-activated guanylate cyclase activity, ST-activated (6 units/ml), 1.0 mM
[8] = read-out: % Inhibition of basal guanylate cyclase activity, basal, 1.0 mM

Chain of guanylate cyclase (Rattus norvegicus, UniProt P23897) (P23897 23-1072): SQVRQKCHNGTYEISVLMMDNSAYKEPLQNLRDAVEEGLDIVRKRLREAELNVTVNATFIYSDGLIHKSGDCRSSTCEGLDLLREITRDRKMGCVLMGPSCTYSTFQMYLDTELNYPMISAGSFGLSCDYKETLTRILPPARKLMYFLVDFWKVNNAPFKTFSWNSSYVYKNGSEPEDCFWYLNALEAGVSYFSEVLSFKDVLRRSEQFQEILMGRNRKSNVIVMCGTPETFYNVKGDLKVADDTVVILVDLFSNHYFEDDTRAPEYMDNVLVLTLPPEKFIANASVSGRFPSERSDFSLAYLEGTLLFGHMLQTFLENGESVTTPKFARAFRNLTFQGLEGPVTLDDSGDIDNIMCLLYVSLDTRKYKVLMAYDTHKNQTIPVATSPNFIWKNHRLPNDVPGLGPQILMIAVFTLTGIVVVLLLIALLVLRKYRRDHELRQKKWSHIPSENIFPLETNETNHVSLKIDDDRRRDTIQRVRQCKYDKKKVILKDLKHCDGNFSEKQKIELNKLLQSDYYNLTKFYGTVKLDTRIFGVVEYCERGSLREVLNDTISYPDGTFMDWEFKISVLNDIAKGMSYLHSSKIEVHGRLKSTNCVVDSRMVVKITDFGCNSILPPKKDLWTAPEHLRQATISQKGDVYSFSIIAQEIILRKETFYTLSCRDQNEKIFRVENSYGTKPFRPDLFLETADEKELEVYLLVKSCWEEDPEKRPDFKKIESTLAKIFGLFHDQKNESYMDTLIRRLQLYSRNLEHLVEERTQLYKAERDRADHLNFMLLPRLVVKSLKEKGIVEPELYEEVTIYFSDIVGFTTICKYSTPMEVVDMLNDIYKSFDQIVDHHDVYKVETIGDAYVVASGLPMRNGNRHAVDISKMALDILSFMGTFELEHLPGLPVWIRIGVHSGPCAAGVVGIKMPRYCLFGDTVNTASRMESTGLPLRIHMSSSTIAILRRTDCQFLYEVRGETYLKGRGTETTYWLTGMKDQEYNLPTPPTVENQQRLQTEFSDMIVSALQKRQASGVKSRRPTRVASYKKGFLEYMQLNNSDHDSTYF

## N[C@H](CSSC[C@@H](N)C(=O)O)C(=O)O [D-cystine]
Guanylate cyclase [1]; 1 mM
  effect on ST-induced guanylate cyclase activity (in words): significantly reduced
  effect on basal guanylate cyclase activity (in words): neither drug affected basal activity
Guanylate cyclase [1]; concentration not given
  effect on basal guanylate cyclase activity (in words): Neither compound inhibited basal guanylate cyclase activity
Guanylate cyclase [1]; [7]
  inhibition at 1000 µM: 33%
Guanylate cyclase [1]; [8]
  inhibition at 1000 µM: 0%
[2]; mouse, in vivo
  effect on ST-induced intestinal secretion (in words): significantly reduced
  intestinal fluid ratio (intestinal weight to remaining body weight), ST-induced: 0.1034±0.004 and 0.1197±0.004
[2]; mouse, in vivo, sc
  effect on ST-induced secretion (in words): neither compound reduced intestinal secretion
  intestinal fluid ratio (intestinal weight to remaining body weight), ST-induced: 0.1092±0.011
[3]
  Intestinal:Body Wt. Ratio, 8-bromo cyclic GMP-induced: 0.1048 ± 0.004
  effect on 8-bromo cyclic GMP-induced intestinal secretion (in words): Neither compound altered cyclic GMP-induced intestinal secretion
[3]; sc
  Intestinal:Body Wt. Ratio, 8-bromo cyclic GMP-induced: 0.1001 ± 0.005
[4]
  effect on basal secretion (in words): Neither agent given s.c. or i.g. significantly altered basal secretion

## N[C@@H](CS)C(=O)O [L-cysteine]
Guanylate cyclase [1]; ST-activated (6 units/ml), 1.0 mM
  % Inhibition of ST-activated guanylate cyclase activity: 11%
Guanylate cyclase [1]; 1 mM
  effect on basal guanylate cyclase activity (in words): did not alter basal guanylate cyclase activity; also recorded: None of the other sulfhydryl compounds (1 mM) affected basal enzyme activity
Guanylate cyclase [1]; [7]
  inhibition at 1000 µM: 11 to 21%
Guanylate cyclase [1]; [8]
  inhibition at 1000 µM: 0%
[2]; mouse, in vivo
  intestinal fluid ratio (intestinal weight to remaining body weight), ST-induced: 0.0680±0.001 and 0.0877±0.006
[2]; mouse, in vivo, sc
  effect on ST-induced fluid responses (in words): neither D- or L-cysteine inhibited ST-induced fluid responses
[3]
  Intestinal:Body Wt. Ratio, 8-bromo cyclic GMP-induced: 0.1097 ± 0.004
[3]; sc
  Intestinal:Body Wt. Ratio, 8-bromo cyclic GMP-induced: 0.1051 ± 0.006
[4]
  effect on basal intestinal fluid level (in words): No effect on basal fluid level

## N[C@@H](CSSC[C@H](N)C(=O)O)C(=O)O [L-cystine]
Guanylate cyclase [1]; 1 mM
  effect on ST-induced guanylate cyclase activity (in words): significantly reduced
  effect on basal guanylate cyclase activity (in words): neither drug affected basal activity
Guanylate cyclase [1]; concentration not given
  effect on basal guanylate cyclase activity (in words): Neither compound inhibited basal guanylate cyclase activity
Guanylate cyclase [1]; [7]
  inhibition at 1000 µM: 39%
Guanylate cyclase [1]; [8]
  inhibition at 1000 µM: 0%
[2]; mouse, in vivo
  effect on ST-induced intestinal secretion (in words): significantly reduced
  intestinal fluid ratio (intestinal weight to remaining body weight), ST-induced: 0.0940±0.004 and 0.1288±0.003
[2]; mouse, in vivo, sc
  effect on ST-induced secretion (in words): neither compound reduced intestinal secretion
  intestinal fluid ratio (intestinal weight to remaining body weight), ST-induced: 0.1115±0.006
[3]
  Intestinal:Body Wt. Ratio, 8-bromo cyclic GMP-induced: 0.1191 ± 0.004
  effect on 8-bromo cyclic GMP-induced intestinal secretion (in words): Neither compound altered cyclic GMP-induced intestinal secretion
[3]; sc
  Intestinal:Body Wt. Ratio, 8-bromo cyclic GMP-induced: 0.1043 ± 0.004
[4]
  effect on basal secretion (in words): Neither agent given s.c. or i.g. significantly altered basal secretion

## c1ccc2c(CC3=NCCN3)cccc2c1 [Naphazoline, naphazoline]
[2]; 10 mM
  effect against ST (in words): effective
[2]; mouse, in vivo
  intestinal-fluid ratio ± SEM, experiment #1: .150 ± .005
  intestinal-fluid ratio ± SEM, experiment #2: .123 ± .005
N = 3
  death of mice: ALL DEAD
mouse, in vivo
  margin to lethal dose (in words): only one log less than a lethal dose

## NCCCNCCSP(=O)(O)O [S-2-(3-aminopropylamino) ethyl phosphorothioic acid]
[2]; mouse, in vivo
  Ratio ± SEM, ST-induced: 0.1034 ± 0.008 and 0.0685 ± 0.003

## N[C@@H](CS[35S]C[C@H](N)C(=O)O)C(=O)O [^35 S-cystine]
Guanylate cyclase [5]
  effect on guanylate cyclase (in words): reversible loss of enzyme activity

## COc1ccc2cc3[n+](cc2c1OC)CCc1cc2c(cc1-3)OCO2 [berberine]
[2]; mouse, in vivo
  intestinal-fluid ratio ± SEM: .122 ± 0.003
  intestinal-fluid ratio, pre-treatment: .122 ± .004

## NO [hydroxylamine]
Guanylate cyclase [5]
  effect on guanylate cyclase (in words): activates guanylate cyclase
[6]
  effect on intestinal ion transport (in words): causes intestinal ion transport alterations similar to those seen with ST
